Active and inactive are the calls of the source. The calls are words filed in the database; no cut-off is given here.
Legend:
Rhodotorula mucilaginosa [1] = assay: Antifungal activity against Rhodotorula mucilaginosa at 100 U/disk after 48 hr by disk diffusion method; format: functional, organism-based
Pseudomonas aeruginosa [2] = assay: Antibacterial activity against Pseudomonas aeruginosa ATCC 27853 at 140 ug/disk after 24 hr by disk-diffusion method; format: functional, organism-based
Aspergillus niger [3] = assay: Antifungal activity against Aspergillus niger ATCC 10949 at 140 ug/disk after 72 hr by disk diffusion method; format: functional; conditions: for zone of inhibition at 140 µg/disc: ATCC 10949, 72 h, read-out: DIZ
Candida albicans [4] = assay: Antifungal activity against Candida albicans ATCC 10231 at 20 ug/disk after 48 hr by disk-diffusion method; format: functional
Bacillus cereus [5] = assay: Antibacterial activity against Bacillus cereus NRRL 3711 at 40 ug/disk after 24 hr by disk diffusion method; format: functional
Rhodotorula mucilaginosa [6] = assay: Antifungal activity against Rhodotorula mucilaginosa at 20 ug/disk after 48 hr by disk diffusion method; format: functional
Aspergillus niger [7] = assay: Antifungal activity against Aspergillus niger ATCC 10949 at 40 ug/disk after 72 hr by disk diffusion method; format: functional, organism-based
Nocardia [8] = assay: Antibacterial activity against Nocardia canis at 20 ug/disk after 24 hr by disk diffusion method; format: functional, organism-based
Nocardia [9] = assay: Antibacterial activity against Nocardia canis at 40 ug/disk after 24 hr by disk diffusion method; format: functional
Proteus vulgaris [10] = assay: Antibacterial activity against Proteus vulgaris NRRL-B-123 at 20 ug/disk after 24 hr by disk diffusion method; format: functional, organism-based
Nocardia [11] = assay: Antibacterial activity against Nocardia canis at 140 ug/disk after 24 hr by disk diffusion method; format: functional
Staphylococcus aureus [12] = assay: Antibacterial activity against Staphylococcus aureus ATCC 25923 at 140 ug/disc after 24 hr by disk diffusion method; format: functional
Rhodotorula mucilaginosa [13] = assay: Antifungal activity against Rhodotorula mucilaginosa at 140 ug/disk after 48 hr by disk diffusion method; format: functional; conditions: for zone of inhibition at 140 µg/disc: read-out: DIZ
Rhodotorula mucilaginosa [14] = assay: Antifungal activity against Rhodotorula mucilaginosa at 40 ug/disk after 48 hr by disk diffusion method; format: functional
Escherichia coli [15] = assay: Antibacterial activity against Escherichia coli ATCC 25922 at 140 ug/disk after 24 hr by disk-diffusion method; format: functional
Bacillus cereus [16] = assay: Antibacterial activity against Bacillus cereus NRRL 3711 at 20 ug/disk after 24 hr by disk diffusion method; format: functional
Proteus vulgaris [17] = assay: Antibacterial activity against Proteus vulgaris NRRL-B-123 at 40 ug/disk after 24 hr by disk diffusion method; format: functional, organism-based
[18] = tested on: Staphylococcus epidermidis; assay: Antibacterial activity against Staphylococcus epidermidis ATCC 12228 at 20 ug/disk after 24 hr by disk diffusion method; format: functional, organism-based
Aspergillus niger [19] = assay: Antifungal activity against Aspergillus niger ATCC 10949 at 20 ug/disk after 72 hr by disk diffusion method; format: functional, organism-based
Bacillus cereus [20] = assay: Antibacterial activity against Bacillus cereus NRRL 3711 at 140 ug/disk after 24 hr by disk diffusion method; format: functional; conditions: for zone of inhibition at 140 µg/disc: NRRL 3711, 24 h, read-out: DIZ
[21] = tested on: Staphylococcus epidermidis; assay: Antibacterial activity against Staphylococcus epidermidis ATCC 12228 at 40 ug/disk after 24 hr by disk diffusion method; format: functional
Escherichia coli [22] = assay: Antibacterial activity against Escherichia coli ATCC 25922 at 40 ug/disk after 24 hr by disk-diffusion method; format: functional
Candida albicans [23] = assay: Antifungal activity against Candida albicans ATCC 10231 at 40 ug/disk after 48 hr by disk-diffusion method; format: functional; conditions: for zone of inhibition at 40 µg/disc: ATCC 10231, 48 h, read-out: DIZ
Pseudomonas aeruginosa [24] = assay: Antibacterial activity against Pseudomonas aeruginosa ATCC 27853 at 20 ug/disk after 24 hr by disk-diffusion method; format: functional, organism-based
Proteus vulgaris [25] = assay: Antibacterial activity against Proteus vulgaris NRRL-B-123 at 140 ug/disk after 24 hr by disk diffusion method; format: functional, organism-based
Staphylococcus aureus [26] = assay: Antibacterial activity against Staphylococcus aureus ATCC 25923 at 40 ug/disc after 24 hr by disk diffusion method; format: functional
[27] = tested on: Staphylococcus epidermidis; assay: Antibacterial activity against Staphylococcus epidermidis ATCC 12228 at 140 ug/disk after 24 hr by disk diffusion method; format: functional
Escherichia coli [28] = assay: Antibacterial activity against Escherichia coli ATCC 25922 at 20 ug/disk after 24 hr by disk-diffusion method; format: functional
Pseudomonas aeruginosa [29] = assay: Antibacterial activity against Pseudomonas aeruginosa ATCC 27853 at 40 ug/disk after 24 hr by disk-diffusion method; format: functional, organism-based
Candida albicans [30] = assay: Antifungal activity against Candida albicans ATCC 10231 at 140 ug/disk after 48 hr by disk-diffusion method; format: functional; conditions: for zone of inhibition at 140 µg/disc: ATCC 10231, 48 h, read-out: DIZ
Staphylococcus aureus [31] = assay: Antibacterial activity against Staphylococcus aureus ATCC 25923 at 20 ug/disc after 24 hr by disk diffusion method; format: functional

Row | Molecule | diameter of the inhibition zone (DIZ) (Pseudomonas aeruginosa [2]) | diameter of the inhibition zone (DIZ) (Rhodotorula mucilaginosa [6]) | diameter of the inhibition zone (DIZ) (Aspergillus niger [7]) | diameter of the inhibition zone (DIZ) (Nocardia [8]) | diameter of the inhibition zone (DIZ) (Nocardia [9]) | diameter of the inhibition zone (DIZ) (Proteus vulgaris [10]) | diameter of the inhibition zone (DIZ) (Nocardia [11]) | diameter of the inhibition zone (DIZ) (Staphylococcus aureus [12]) | diameter of the inhibition zone (DIZ) (Escherichia coli [15]) | diameter of the inhibition zone (DIZ) (Proteus vulgaris [17]) | diameter of the inhibition zone (DIZ) [18] | diameter of the inhibition zone (DIZ) (Aspergillus niger [19]) | diameter of the inhibition zone (DIZ) [21] | diameter of the inhibition zone (DIZ) (Escherichia coli [22]) | diameter of the inhibition zone (DIZ) (Pseudomonas aeruginosa [24]) | diameter of the inhibition zone (DIZ) (Proteus vulgaris [25]) | diameter of the inhibition zone (DIZ) (Staphylococcus aureus [26]) | diameter of the inhibition zone (DIZ) [27] | diameter of the inhibition zone (DIZ) (Escherichia coli [28]) | diameter of the inhibition zone (DIZ) (Pseudomonas aeruginosa [29]) | also measured
1 | NYSTATIN |  |  |  |  |  |  |  |  |  |  |  |  |  |  |  |  |  |  |  |  | inhibition zone (IZ) (Rhodotorula mucilaginosa [1]): 21 mm
2 | CC1(C)CCC2=C(C1=O)C(c1ccc(C3C4=C(CCC(C)(C)C4=O)OC4=C3C(=O)C(C)(C)CC4)cc1)C1=C(CCC(C)(C)C1=O)O2 | inactive | inactive | inactive | inactive | inactive | inactive | inactive | inactive | inactive | inactive | inactive | inactive | inactive | inactive | inactive | inactive | inactive | inactive | inactive | inactive | zone of inhibition at 140 µg/disc (Aspergillus niger [3]): 7 mm; diameter of the inhibition zone (DIZ) (Candida albicans [4]): inactive; diameter of the inhibition zone (DIZ) (Bacillus cereus [5]): inactive; diameter of the inhibition zone (DIZ) (Rhodotorula mucilaginosa [13]): inactive; diameter of the inhibition zone (DIZ) (Rhodotorula mucilaginosa [14]): inactive; diameter of the inhibition zone (DIZ) (Bacillus cereus [16]): inactive; diameter of the inhibition zone (DIZ) (Bacillus cereus [20]): inactive; diameter of the inhibition zone (DIZ) (Candida albicans [23]): inactive; diameter of the inhibition zone (DIZ) (Candida albicans [30]): inactive; diameter of the inhibition zone (DIZ) (Staphylococcus aureus [31]): inactive
3 | CC1(C)CC(=O)C2=C(C1)OC1=C(C(=O)CC(C)(C)C1)C2c1ccc(C2C3=C(CC(C)(C)CC3=O)OC3=C2C(=O)CC(C)(C)C3)cc1 | inactive | inactive | inactive | inactive | inactive | inactive | inactive | inactive | inactive | inactive | inactive | inactive | inactive | inactive | inactive | inactive | inactive | inactive | inactive | inactive | diameter of the inhibition zone (DIZ) (Aspergillus niger [3]): inactive; diameter of the inhibition zone (DIZ) (Candida albicans [4]): inactive; diameter of the inhibition zone (DIZ) (Bacillus cereus [5]): inactive; zone of inhibition at 140 µg/disc (Rhodotorula mucilaginosa [13]): 9 mm; diameter of the inhibition zone (DIZ) (Rhodotorula mucilaginosa [14]): inactive; diameter of the inhibition zone (DIZ) (Bacillus cereus [16]): inactive; zone of inhibition at 140 µg/disc (Bacillus cereus [20]): 7 mm; zone of inhibition at 40 µg/disc (Candida albicans [23]): 9 mm; zone of inhibition at 140 µg/disc (Candida albicans [30]): 9 mm; diameter of the inhibition zone (DIZ) (Staphylococcus aureus [31]): inactive
4 | COc1ccc(C2CC(=O)C3=C(C2)OC2=C(C(=O)CC(c4ccc(OC)c(OC)c4)C2)C3c2cccc(C3C4=C(CC(c5ccc(OC)c(OC)c5)CC4=O)OC4=C3C(=O)CC(c3ccc(OC)c(OC)c3)C4)c2)cc1OC (stereo unspecified) | inactive | inactive | inactive | inactive | inactive | inactive | inactive | inactive | inactive | inactive | inactive | inactive | inactive | inactive | inactive | inactive | inactive | inactive | inactive | inactive | zone of inhibition at 140 µg/disc (Aspergillus niger [3]): 7 mm; zone of inhibition at 20 µg/disc (Candida albicans [4]; ATCC 10231, 48 h, read-out: DIZ): 7 mm; diameter of the inhibition zone (DIZ) (Bacillus cereus [5]): inactive; diameter of the inhibition zone (DIZ) (Rhodotorula mucilaginosa [13]): inactive; diameter of the inhibition zone (DIZ) (Rhodotorula mucilaginosa [14]): inactive; diameter of the inhibition zone (DIZ) (Bacillus cereus [16]): inactive; diameter of the inhibition zone (DIZ) (Bacillus cereus [20]): inactive; zone of inhibition at 40 µg/disc (Candida albicans [23]): 7 mm; zone of inhibition at 140 µg/disc (Candida albicans [30]): 7 mm; diameter of the inhibition zone (DIZ) (Staphylococcus aureus [31]): inactive
5 | O=C1CCCC2=C1C(c1cccc(C3C4=C(CCCC4=O)OC4=C3C(=O)CCC4)c1)C1=C(CCCC1=O)O2 | inactive | inactive | inactive | inactive | inactive | inactive | inactive | inactive | inactive | inactive | inactive | inactive | inactive | inactive | inactive | inactive | inactive | inactive | inactive | inactive | zone of inhibition at 140 µg/disc (Aspergillus niger [3]): 7 mm; diameter of the inhibition zone (DIZ) (Candida albicans [4]): inactive; zone of inhibition at 40 µg/disc (Bacillus cereus [5]; NRRL 3711, 24 h, read-out: DIZ): 10 mm; zone of inhibition at 140 µg/disc (Rhodotorula mucilaginosa [13]): 9 mm; zone of inhibition at 40 µg/disc (Rhodotorula mucilaginosa [14]; read-out: DIZ): 7 mm; zone of inhibition at 20 µg/disc (Bacillus cereus [16]; NRRL 3711, 24 h, read-out: DIZ): 8 mm; zone of inhibition at 140 µg/disc (Bacillus cereus [20]): 8 mm; zone of inhibition at 40 µg/disc (Candida albicans [23]): 7 mm; zone of inhibition at 140 µg/disc (Candida albicans [30]): 7 mm; diameter of the inhibition zone (DIZ) (Staphylococcus aureus [31]): inactive
6 | COc1ccc(C2CC(=O)C3=C(C2)OC2=C(C(=O)CC(c4ccc(OC)c(OC)c4)C2)C3c2ccc(C3C4=C(CC(c5ccc(OC)c(OC)c5)CC4=O)OC4=C3C(=O)CC(c3ccc(OC)c(OC)c3)C4)cc2)cc1OC (stereo unspecified) | inactive | inactive | inactive | inactive | inactive | inactive | inactive | inactive | inactive | inactive | inactive | inactive | inactive | inactive | inactive | inactive | inactive | inactive | inactive | inactive | diameter of the inhibition zone (DIZ) (Aspergillus niger [3]): inactive; diameter of the inhibition zone (DIZ) (Candida albicans [4]): inactive; diameter of the inhibition zone (DIZ) (Bacillus cereus [5]): inactive; diameter of the inhibition zone (DIZ) (Rhodotorula mucilaginosa [13]): inactive; diameter of the inhibition zone (DIZ) (Rhodotorula mucilaginosa [14]): inactive; diameter of the inhibition zone (DIZ) (Bacillus cereus [16]): inactive; diameter of the inhibition zone (DIZ) (Bacillus cereus [20]): inactive; zone of inhibition at 40 µg/disc (Candida albicans [23]): 7 mm; zone of inhibition at 140 µg/disc (Candida albicans [30]): 7 mm; diameter of the inhibition zone (DIZ) (Staphylococcus aureus [31]): inactive

Source: ChEMBL document CHEMBL3044875, “Synthesis and antimicrobial activity of some bisoctahydroxanthene-1,8-dione derivatives” (2011)
